# Test results as given in US20250388544A1, “HETEROAROMATIC INHIBITORS OF ASTACIN PROTEINASES” (VIVORYON THERAPEUTICS N.V., priority 2019, published 2025).
# Assays:
# Format in all cases: biochemical
# [1] = molecular target: T1, hMeprin α (Homo sapiens, UniProt Q16819); assay: Enzymatic assay, quenched peptide substrate cleavage, method A; conditions: geometric mean (geometric SD factor in parentheses), read-out: Meprin alpha IC50
# T1 sequence (Q16819 66-746): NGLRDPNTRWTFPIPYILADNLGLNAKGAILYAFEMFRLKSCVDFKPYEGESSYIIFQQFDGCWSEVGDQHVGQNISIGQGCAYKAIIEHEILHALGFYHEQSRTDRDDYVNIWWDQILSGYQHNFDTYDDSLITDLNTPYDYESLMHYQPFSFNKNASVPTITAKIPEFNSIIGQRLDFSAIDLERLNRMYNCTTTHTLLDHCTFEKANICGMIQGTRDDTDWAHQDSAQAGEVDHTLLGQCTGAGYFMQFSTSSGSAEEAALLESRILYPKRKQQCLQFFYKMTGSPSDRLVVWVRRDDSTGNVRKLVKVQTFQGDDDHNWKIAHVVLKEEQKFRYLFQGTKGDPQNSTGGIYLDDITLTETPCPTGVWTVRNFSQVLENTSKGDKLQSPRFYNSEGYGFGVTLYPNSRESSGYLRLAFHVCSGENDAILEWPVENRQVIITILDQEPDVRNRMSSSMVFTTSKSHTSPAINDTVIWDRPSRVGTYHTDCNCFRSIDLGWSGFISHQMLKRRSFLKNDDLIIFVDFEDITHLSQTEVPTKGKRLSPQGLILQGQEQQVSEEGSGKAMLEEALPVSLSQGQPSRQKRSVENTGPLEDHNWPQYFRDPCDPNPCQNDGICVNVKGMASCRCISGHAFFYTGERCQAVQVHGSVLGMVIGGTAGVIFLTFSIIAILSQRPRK
# Method: (§1) The determination of enzymatic activity was based on the cleavage of internally quenched peptide substrates. A typical assay of 250 μl total volume measured in black 96 well plates consisted of 100 μl buffer, 50 μl enzyme at a final concentration of 5e-8 M to 2e-10 M, 50 μl substrate (0.15 to 80 μM, in buffer, 0.5% DMSO) and 50 μl inhibitor solution (in buffer, 1% DMSO). In case of 125 μl assay volume (black 96 half area well plates) all volumes were cut in half. Enzymatic activity of ADAMs was measured in 384 well plates with 60 μl total assay volume consisting of 20 μl inhibitor, 20 μl buffer, 10 μl enzyme and 10 μl substrate.
# (§2) Based on method B Ki^(app) values were determined using Morrison's equation. All measurements were performed using a fluorescence plate reader (FLUOSTAR OPTIMA, BMG Labtech) at 30° C. The kinetic parameters were determined at least in duplicates on separate days. The excitation/emission wavelength was 340/420 nm. The kinetic data was evaluated using GRAFIT software (version 7.0.3, Erithacus Software).
# [2] = molecular target: T2, hMeprin β (Homo sapiens, UniProt Q16820); assay: as above; conditions: geometric mean (geometric SD factor in parentheses), read-out: Meprin beta IC50
# T2 sequence (Q16820 62-701): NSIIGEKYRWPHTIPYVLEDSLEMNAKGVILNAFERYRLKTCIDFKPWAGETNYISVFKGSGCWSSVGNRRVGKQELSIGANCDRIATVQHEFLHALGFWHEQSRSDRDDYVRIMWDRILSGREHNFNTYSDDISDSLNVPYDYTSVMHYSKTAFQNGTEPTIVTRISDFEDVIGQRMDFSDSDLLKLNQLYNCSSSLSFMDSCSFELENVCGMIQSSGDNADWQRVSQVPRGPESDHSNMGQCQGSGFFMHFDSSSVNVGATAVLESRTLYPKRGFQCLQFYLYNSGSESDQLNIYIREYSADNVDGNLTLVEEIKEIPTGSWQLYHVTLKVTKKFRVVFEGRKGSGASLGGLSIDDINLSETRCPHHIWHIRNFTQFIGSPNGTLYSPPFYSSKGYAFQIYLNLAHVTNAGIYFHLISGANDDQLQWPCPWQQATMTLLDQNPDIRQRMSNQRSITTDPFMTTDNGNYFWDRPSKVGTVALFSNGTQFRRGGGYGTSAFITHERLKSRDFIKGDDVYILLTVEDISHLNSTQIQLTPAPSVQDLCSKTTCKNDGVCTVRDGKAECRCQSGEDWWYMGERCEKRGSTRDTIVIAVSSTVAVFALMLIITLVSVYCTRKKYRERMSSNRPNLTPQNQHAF
# Method: as §1, §2
# [3] = molecular target: T3, hMMP 13 (Homo sapiens, UniProt P45452); assay: Residual enzyme activity of other metalloproteases; conditions: read-out: Residual enzyme activity MMP13; for remaining activity at 10 µM: 10 μM inhibitor; for remaining activity at 200 µM: 200 μM inhibitor
# T3 construct: purchased R&D systems
# Method: as §1, with “A” for “The determination of enzymatic activity was based on the cleavage of internally quenched peptide substrates. A”
# (§3) MMPs were activated prior to measurement by APMA (p-aminophenylmercuric acetate) treatment according to manufacturer's instructions (R&D systems).
# [4] = molecular target: T4, hMMP 2 (Homo sapiens, UniProt P08253); assay: Residual enzyme activity of other metalloproteases; conditions: read-out: Residual enzyme activity MMP2; for remaining activity at 10 µM: 10 μM inhibitor; for remaining activity at 200 µM: 200 μM inhibitor
# T4 construct: purchased Abnova
# T4 sequence (P08253 110-660): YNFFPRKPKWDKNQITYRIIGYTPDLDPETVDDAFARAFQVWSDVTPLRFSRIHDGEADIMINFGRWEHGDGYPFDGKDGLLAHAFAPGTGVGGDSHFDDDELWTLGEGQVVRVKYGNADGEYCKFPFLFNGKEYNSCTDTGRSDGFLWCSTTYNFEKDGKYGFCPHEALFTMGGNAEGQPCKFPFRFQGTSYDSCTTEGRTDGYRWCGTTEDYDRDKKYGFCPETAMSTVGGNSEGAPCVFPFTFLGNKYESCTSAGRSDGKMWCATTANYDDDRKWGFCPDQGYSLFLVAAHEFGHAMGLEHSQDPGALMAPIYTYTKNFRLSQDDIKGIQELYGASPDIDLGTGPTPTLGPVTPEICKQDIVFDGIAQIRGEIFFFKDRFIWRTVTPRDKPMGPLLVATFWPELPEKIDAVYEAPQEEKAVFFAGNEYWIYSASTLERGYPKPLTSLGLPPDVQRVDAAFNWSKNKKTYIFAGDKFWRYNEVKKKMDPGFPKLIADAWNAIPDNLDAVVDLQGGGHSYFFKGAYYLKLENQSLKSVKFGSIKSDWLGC
# Method: as §1, with “A” for “The determination of enzymatic activity was based on the cleavage of internally quenched peptide substrates. A”
# as §3
SMILES,IC50 [1],IC50 [2],remaining activity at 10 µM [3],remaining activity at 200 µM [3],remaining activity at 10 µM [4],remaining activity at 200 µM [4]
"O=C(Cc1c(-c2ccccc2)n[nH]c1-c1ccccc1)NO [Example 1, 2-(3,5-Diphenyl-1H-pyrazol-4-yl)ethanehydroxamic acid]",4 nM,204 nM,75%,67%,104%,61%
"O=C(Cc1c(-c2ccccc2)noc1-c1ccccc1)NO [Example 2, 2-(3,5-Diphenylisoxazol-4-yl)ethanehydroxamic acid]",7 nM,831 nM,80%,31%,87%,34%
"O=C(CCc1c(-c2ccccc2)n[nH]c1-c1ccccc1)NO [Example 3, 3-(3,5-Diphenyl-1H-pyrazol-4-yl)propanehydroxamic acid]",108 nM,8070 nM,93%,68%,97%,77%
"O=C(CCc1c(-c2ccccc2)noc1-c1ccccc1)NO [Example 4, 3-(3,5-Diphenylisoxazol-4-yl)propanehydroxamic acid]",32 nM,13700 nM,79%,66%,98%,74%
"O=C(Cn1c(-c2ccccc2)nnc1-c1ccccc1)NO [Example 7, 2-(3,5-Diphenyl-1,2,4-triazol-4-yl)ethanehydroxamic acid]",69 nM,8710 nM,93%,76%,95%,70%
"O=C(Cn1c(-c2ccccc2)ccc1-c1ccccc1)NO [Example 9, 2-(2,5-Diphenylpyrrol-1-yl)ethanehydroxamic acid]",34 nM,4320 nM,79%,5%,83%,1%
"O=C(Cn1c(-c2ccccc2)nc2ccccc21)NO [Example 13, 2-(2-Phenylbenzimidazol-1-yl)ethanehydroxamic acid]",173 nM,1630 nM,102%,72%,89%,46%
"O=C(Cc1c(-c2ccccc2)nn(Cc2ccc(C(=O)O)cc2)c1-c1ccccc1)NO [Example 40, 4-[[4-(2-(Hydroxyamino)-2-oxo-ethyl]-3,5-diphenyl-1H-pyrazol-1-yl]methyl]benzoic acid]",–,–,86%,22%,85%,24%
"O=C(Cc1c(-c2ccccc2)nn(Cc2cccc(C(=O)O)c2)c1-c1ccccc1)NO [Example 41, 3-[[4-[2-(Hydroxyamino)-2-oxo-ethyl]-3,5-diphenyl-1H-pyrazol-1-yl]methyl]benzoic acid]",–,–,83%,34%,89%,34%
"O=C(Cc1c(-c2ccccc2)nn(Cc2ccc(Cl)c(O)c2F)c1-c1ccccc1)NO [Example 42, 2-[1-(4-Chloro-2-fluoro-3-hydroxybenzyl)-3,5-diphenyl-1H-pyrazol-4-yl]ethanehydroxamic acid]",–,–,84%,9%,69%,18%
"O=C(Cc1c(-c2ccccc2)nn(Cc2ccc3c(c2)OCO3)c1-c1ccccc1)NO [Example 43, 2-[1-(1,3-Benzodioxol-5-ylmethyl)-3,5-diphenyl-1H-pyrazol-4-yl]ethanehydroxamic acid]",–,–,78%,51%,77%,60%
"COc1cccc(-c2n[nH]c(-c3ccccc3)c2CC(=O)NO)c1 [Example 47, 2-[3-(3-Methoxyphenyl)-5-phenyl-1H-pyrazol-4-yl]ethanehydroxamic acid]",–,–,85%,28%,78%,17%
"COc1ccc(-c2n[nH]c(-c3ccccc3)c2CC(=O)NO)cc1OC [Example 49, 2-[3-(3,4-Dimethoxyphenyl)-5-phenyl-1H-pyrazol-4-yl]ethanehydroxamic acid]",–,–,101%,18%,83%,26%
"O=C(Cc1c(-c2ccc3c(c2)OCO3)n[nH]c1-c1ccccc1)NO [Example 50, 2-[3-(1,3-Benzodioxol-5-yl)-5-phenyl-1H-pyrazol-4-yl]ethanehydroxamic acid]",–,–,71%,10%,41%,8%
"O=C(Cc1c(-c2cc(F)c(O)c(Cl)c2)n[nH]c1-c1ccccc1)NO [Example 54, 2-[3-(3-Chloro-5-fluoro-4-hydroxy-phenyl)-5-phenyl-1H-pyrazol-4-yl]ethanehydroxamic acid]",–,–,88%,28%,66%,17%
"O=C(Cc1c(-c2cccc(C(=O)O)c2)n[nH]c1-c1ccc(Cl)c(O)c1F)NO [Example 63, 3-[5-(4-Chloro-2-fluoro-3-hydroxy-phenyl)-4-[2-(hydroxyamino)-2-oxo-ethyl]-1H-pyrazol-3-yl]benzoic acid]",–,–,105%,73%,95%,81%
